# Results published in ChEMBL document CHEMBL1201862, “PubChem BioAssay data set” (2004).
#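 These data come from cells grown in 96-well plates and exposed to compound for 48 hours at five concentrations. GI50 marks 50% less growth.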 Activity calls are given as the source filed them. No stated cut-off is given here; in the data, active = GI50 up to about 1.1 µM and inactive = higher.
# Key:
# Assay in all cases: growth of human tumour cells (NCI), 48 h
# [1] = test system: 786-0
# [2] = test system: A549
# [3] = test system: ACHN
# [4] = test system: BT-549
# [5] = test system: CAKI-1
# [6] = test system: CCRF-CEM
# [7] = test system: COLO 205
# [8] = test system: DU-145
# [9] = test system: EKVX
# [10] = test system: HCC 2998
# [11] = test system: HCT-116
# [12] = test system: HCT-15
# [13] = test system: HL-60
# [14] = test system: HOP-62
# [15] = test system: HOP-92
# [16] = test system: HT-29
# [17] = test system: Hs-578T
# [18] = test system: IGROV-1
# [19] = test system: K562
# [20] = test system: KM12
# [21] = test system: LOX IMVI
# [22] = test system: M14
# [23] = test system: MCF7
# [24] = test system: MDA-MB-231
# [25] = test system: MDA-MB-435
# [26] = test system: MDA-N
# [27] = test system: MOLT-4
# [28] = test system: Malme-3M
# [29] = test system: NCI-H226
# [30] = test system: NCI-H23
# [31] = test system: NCI-H460
# [32] = test system: NCI-H522
# [33] = test system: NCI/ADR-RES
# [34] = test system: OVCAR-3
# [35] = test system: OVCAR-4
# [36] = test system: OVCAR-5
# [37] = test system: OVCAR-8
# [38] = test system: PC-3
# [39] = test system: RPMI-8226
# [40] = test system: RXF 393
# [41] = test system: SF-268
# [42] = test system: SF-295
# [43] = test system: SF-539
# [44] = test system: SK-MEL-28
# [45] = test system: SK-MEL-2
# [46] = test system: SK-MEL-5
# [47] = test system: SK-OV-3
# [48] = test system: SN12C
# [49] = test system: SNB-19
# [50] = test system: SNB-75
# [51] = test system: SR
# [52] = test system: SW-620
# [53] = test system: T47D
# [54] = test system: TK-10
# [55] = test system: U-251
# [56] = test system: UACC-257
# [57] = test system: UACC-62
# [58] = test system: UO-31
# [59] = test system: A498
structure (smiles),measurement,setting,value
Cc1cccc(Nc2nc3ccccc3nc2NS(=O)(=O)c2ccc(N)cc2)c1,GI50,[1],30 µM (inactive)
same,GI50,[2],23.8 µM (inactive)
same,GI50,[3],32.2 µM (inactive)
same,GI50,[4],9.42 µM (inactive)
same,GI50,[5],30.7 µM (inactive)
same,GI50,[6],15.2 µM (inactive)
same,GI50,[7],21.1 µM (inactive)
same,GI50,[8],37.2 µM (inactive)
same,GI50,[9],54.3 µM (inactive)
same,GI50,[10],30.9 µM (inactive)
same,GI50,[11],33.1 µM (inactive)
same,GI50,[12],34.1 µM
same,GI50,[13],28.1 µM (inactive)
same,GI50,[14],25.7 µM (inactive)
same,GI50,[15],40.3 µM (inactive)
same,GI50,[16],48.3 µM (inactive)
same,GI50,[17],49.5 µM (inactive)
same,GI50,[18],33 µM (inactive)
same,GI50,[19],25.2 µM (inactive)
same,GI50,[20],26.7 µM (inactive)
same,GI50,[21],52.1 µM (inactive)
same,GI50,[22],37.8 µM (inactive)
same,GI50,[23],24.4 µM (inactive)
same,GI50,[24],36.3 µM (inactive)
same,GI50,[25],38.6 µM (inactive)
same,GI50,[26],45.9 µM (inactive)
same,GI50,[27],11.7 µM (inactive)
same,GI50,[28],78.7 µM (inactive)
same,GI50,[29],60.4 µM (inactive)
same,GI50,[30],5.61 µM (inactive)
same,GI50,[31],32.5 µM (inactive)
same,GI50,[32],18 µM (inactive)
same,GI50,[33],36.1 µM (inactive)
same,GI50,[34],38.5 µM (inactive)
same,GI50,[35],10 µM (inactive)
same,GI50,[36],> 100 µM (inactive)
same,GI50,[37],39.6 µM (inactive)
same,GI50,[38],29.6 µM (inactive)
same,GI50,[39],23.4 µM (inactive)
same,GI50,[40],18.5 µM (inactive)
same,GI50,[41],63.7 µM (inactive)
same,GI50,[42],34.8 µM (inactive)
same,GI50,[43],19.1 µM (inactive)
same,GI50,[44],27.7 µM (inactive)
same,GI50,[45],24.9 µM (inactive)
same,GI50,[46],35.5 µM (inactive)
same,GI50,[47],54.8 µM (inactive)
same,GI50,[48],36.6 µM (inactive)
same,GI50,[49],31.3 µM (inactive)
same,GI50,[50],52.8 µM (inactive)
same,GI50,[51],19.8 µM (inactive)
same,GI50,[52],17.6 µM (inactive)
same,GI50,[53],34.5 µM (inactive)
same,GI50,[54],32.5 µM (inactive)
same,GI50,[55],20.7 µM (inactive)
same,GI50,[56],41.4 µM (inactive)
same,GI50,[57],38.4 µM (inactive)
same,GI50,[58],16.2 µM (inactive)
COC(=O)/C(=C(\C)NC(C)=O)c1c(C(=O)OC)[nH]c2ccccc12,GI50,[1],> 100 µM (inactive)
same,GI50,[59],> 100 µM (inactive)
same,GI50,[2],> 100 µM (inactive)
same,GI50,[3],> 100 µM (inactive)
same,GI50,[4],> 100 µM (inactive)
same,GI50,[5],> 100 µM (inactive)
same,GI50,[6],> 100 µM (inactive)
same,GI50,[7],> 100 µM (inactive)
same,GI50,[8],> 100 µM (inactive)
same,GI50,[9],> 100 µM (inactive)
same,GI50,[10],> 100 µM (inactive)
same,GI50,[11],> 100 µM (inactive)
same,GI50,[12],> 100 µM
same,GI50,[13],> 100 µM (inactive)
same,GI50,[14],> 100 µM (inactive)
same,GI50,[15],> 100 µM (inactive)
same,GI50,[16],> 100 µM (inactive)
same,GI50,[17],> 100 µM (inactive)
same,GI50,[18],> 100 µM (inactive)
same,GI50,[19],> 100 µM (inactive)
same,GI50,[20],> 100 µM (inactive)
same,GI50,[21],> 100 µM (inactive)
same,GI50,[22],> 100 µM (inactive)
same,GI50,[23],> 100 µM (inactive)
same,GI50,[24],> 100 µM (inactive)
same,GI50,[25],> 100 µM (inactive)
same,GI50,[26],> 100 µM (inactive)
same,GI50,[27],> 100 µM (inactive)
same,GI50,[28],> 100 µM (inactive)
same,GI50,[29],> 100 µM (inactive)
same,GI50,[30],> 100 µM (inactive)
same,GI50,[31],> 100 µM (inactive)
same,GI50,[32],95.3 µM (inactive)
same,GI50,[33],> 100 µM (inactive)
same,GI50,[34],> 100 µM (inactive)
same,GI50,[35],> 100 µM (inactive)
same,GI50,[36],> 100 µM (inactive)
same,GI50,[37],> 100 µM (inactive)
same,GI50,[38],> 100 µM (inactive)
same,GI50,[39],> 100 µM (inactive)
same,GI50,[40],> 100 µM (inactive)
same,GI50,[41],> 100 µM (inactive)
same,GI50,[42],> 100 µM (inactive)
same,GI50,[43],> 100 µM (inactive)
same,GI50,[44],> 100 µM (inactive)
same,GI50,[45],> 100 µM (inactive)
same,GI50,[46],> 100 µM (inactive)
same,GI50,[47],> 100 µM (inactive)
same,GI50,[48],> 100 µM (inactive)
same,GI50,[49],> 100 µM (inactive)
same,GI50,[51],> 100 µM (inactive)
same,GI50,[52],> 100 µM (inactive)
same,GI50,[53],> 100 µM (inactive)
same,GI50,[54],> 100 µM (inactive)
same,GI50,[55],> 100 µM (inactive)
same,GI50,[56],> 100 µM (inactive)
same,GI50,[57],> 100 µM (inactive)
same,GI50,[58],> 100 µM (inactive)
